Measured values as given in US20040106877A1, “Method and device for determining state of skin surface” (priority 2000, published 2004).
Like-named read-outs stand apart in the source and are kept apart here. No end group written: not given here.

How the values were obtained:
Format in all cases: cell-based
[1] = system: skin sections of a hairless mouse
[2] = system: skin sections of a hairless mouse; test: Skin surface potential difference relative to culture solution, capsaicin coated on the skin surface; settings: FIG. 6
Text: In a second method, upon measuring the skin surface condition of the first method, stimulation is imparted further to the skin model comprising a skin section and a culture solution to measure aforementioned potential difference. This potential difference changes as stimulation is imparted. This change means that a stream of ions has occurred in the epidermis. The direction of a stream of ions differs depending on stimulation. When there is a change compared to the value of untreated skin, it is interpreted that stimulation producing mobility of ions is imparted to the epidermis. The degree of skin stimulation is measured from the changed value. Upon imparting stimulation, the place of stimulation may be on skin surface or culture solution. In the case of skin surface, examples of methods for imparting stimulation include coating skin with a stimulating substance and physical stimulation. Also, in the case of culture solution, the method used is addition of stimulating substances. Examples of these stimulating substances include neuropeptide, histamine, surfactant, organic acid, and capsaicin. […] In addition, examples of said physical stimulation include barrier destruction by a cellophane adhesive tape and the like.

[3] = system: skin sections of a hairless mouse; test: Skin surface potential difference relative to culture solution, substance P (SP) stimulation; settings: FIG. 3

Compound: Nc1ccncc1 [AP, aminopyridine]
- inhibition of the tape-stripping-induced change in potential difference ([1]; drug added to culture solution after tape stripping, average of five measurements, FIG. 4, FIG. 5): reduces the change in potential difference

Compound: COc1cc(CNC(=O)CCCC/C=C/C(C)C)ccc1O [capsaicin]
- time of maximum change in potential difference after coating ([2]; capsaicin coated on skin surface): 0.5 h
- change in potential difference of the skin surface relative to culture solution after stimulating substance ([2]; capsaicin coated on skin surface, compared with non-treated skin surface (control), average of five measurements): a rapid change in potential difference

Compound: [D-Arg1, D-Trp7, 9, Leu11]-SubstanceP [SP antagonist]
- inhibition of the SP-induced change in potential difference ([3]; drug added to culture solution before adding SP, observed for 2 hours): no rapid and significant change in potential difference is produced

Compound: substance P (RPKPQQFFGLM; ends and bridges not checked; UniProt P20366 58-68, looked up) [SP, neuropeptide used as a stimulating substance]
- time after addition when the potential difference returns to a value close to control ([3]; SP added to culture solution): 2 h
- time of peak of the potential difference change after addition ([3]; SP added to culture solution): 1 h
- change in potential difference of the skin surface relative to culture solution after stimulating substance ([3]; SP added to culture solution, compared with non-treated skin surface (control), average of five measurements): a rapid change in a potential difference is produced

Compound: NC1=N[C@H](O)[C@H]2[C@H]3O[C@]4(O)O[C@@H]([C@@H](O)[C@@]2(N1)[C@@H]4O)[C@]3(O)CO [TTX, tetrodotoxin]
- inhibition of the tape-stripping-induced change in potential difference [1]: does not inhibit the change in a potential difference

Compound: Oc1cc2c(cc1O)CN(C(=S)NCCc1ccc(Cl)cc1)CCC2 [capsazepine]
- inhibition of the capsaicin-induced change in potential difference ([2]; drug coated on skin surface after capsaicin): the range of change in potential difference is reduced
